Experimental data from patent publication US7589169B2, “Compositions for treatment with glucagon-like peptide, and methods of making and using the same” (Pharmain Corporation, priority 2002, dated 2009).

Tested on: rat pancreatic ductal cell line ARIP
Test: Trans-differentiation of ARIP ductal cells, RT-PCR of beta-cell specific genes
Format: cell-based
Settings: ARIP cells cultured with GLP-1, RT-PCR
Method: Based on previous studies, insulin mRNA should be detectable after 48 h, GLUT-2 after 24 h and glucokinase mRNA at 72 h. […] RT-PCR for β-actin will be used as a control for cDNA loading.

## glucagon-like peptide 1 [GLP-1]
  time after which GLUT-2 mRNA should be detectable: 24 h
  time after which insulin mRNA should be detectable: 48 h
  time at which glucokinase mRNA should be detectable: 72 h
